# Columns and labels:
# [1] = test system: MDA-MB-231; experiment: Growth inhibition of human MDA-MB-231/ATCC cells assessed as cell growth at 100 uM after 48 hrs by SRB assay relative to control; type: functional; settings: MDA-MB-231, 48 h, read-out: Activity
# [2] = test system: Malme-3M; experiment: Growth inhibition of human MALME-3M cells assessed as cell growth at 0.1 uM after 48 hrs by SRB assay relative to control; type: functional; settings: read-out: Activity
# [3] = test system: NCI-H23; experiment: Growth inhibition of human NCI-H23 cells assessed as cell growth at 1 uM after 48 hrs by SRB assay relative to control; type: functional; settings: NCI-H23, 48 h, read-out: Activity
# [4] = test system: HOP-92; experiment: Growth inhibition of human HOP92 cells assessed as cell growth at 1 uM after 48 hrs by SRB assay relative to control; type: functional; settings: HOP-92, 48 h, read-out: Activity
# [5] = test system: SNB-19; experiment: Growth inhibition of human SNB19 cells assessed as cell growth at 0.1 uM after 48 hrs by SRB assay relative to control; type: functional; settings: SNB-19, 48 h, read-out: Activity
# [6] = test system: SW-620; experiment: Growth inhibition of human SW620 cells assessed as cell growth at 0.01 uM after 48 hrs by SRB assay relative to control; type: functional; settings: SW-620, 48 h, read-out: Activity
# [7] = test system: OVCAR-8; experiment: Growth inhibition of human OVCAR8 cells assessed as cell growth at 0.01 uM after 48 hrs by SRB assay relative to control; type: functional; settings: OVCAR-8, 48 h, read-out: Activity
# [8] = test system: HOP-62; experiment: Growth inhibition of human HOP62 cells assessed as cell growth at 1 uM after 48 hrs by SRB assay relative to control; type: functional; settings: HOP-62, 48 h, read-out: Activity
# [9] = test system: SK-OV-3; experiment: Cytotoxicity against human SKOV3 cells assessed as growth inhibition after 48 hrs by SRB assay; type: functional; settings: SK-OV-3, 48 h
# [10] = test system: RPMI-8226; experiment: Cytotoxicity against human RPMI8226 cells assessed as growth inhibition after 48 hrs by SRB assay; type: functional; settings: RPMI-8226, 48 h
# [11] = test system: SW-620; experiment: Growth inhibition of human SW620 cells assessed as cell growth at 1 uM after 48 hrs by SRB assay relative to control; type: functional; settings: SW-620, 48 h, read-out: Activity
# [12] = test system: A498; experiment: Cytotoxicity against human A498 cells assessed as growth inhibition after 48 hrs by SRB assay; type: functional; settings: A498, 48 h
# [13] = test system: SNB-75; experiment: Growth inhibition of human SNB75 cells assessed as cell growth at 1 uM after 48 hrs by SRB assay relative to control; type: functional; settings: SNB-75, 48 h, read-out: Activity
# [14] = test system: NCI-H522; experiment: Cytotoxicity against human NCI-H522 cells assessed as growth inhibition after 48 hrs by SRB assay; type: functional; settings: NCI-H522, 48 h
# [15] = test system: 786-0; experiment: Growth inhibition of human 786-0 cells assessed as cell growth at 0.1 uM after 48 hrs by SRB assay relative to control; type: functional; settings: 786-0, 48 h, read-out: Activity
# [16] = test system: Malme-3M; experiment: Growth inhibition of human MALME-3M cells assessed as cell growth at 0.01 uM after 48 hrs by SRB assay relative to control; type: functional; settings: read-out: Activity
# [17] = test system: ACHN; experiment: Growth inhibition of human ACHN cells assessed as cell growth at 0.01 uM after 48 hrs by SRB assay relative to control; type: functional; settings: read-out: Activity
# [18] = test system: NCI-H522; experiment: Growth inhibition of human NCI-H522 cells assessed as cell growth at 1 uM after 48 hrs by SRB assay relative to control; type: functional; settings: NCI-H522, 48 h, read-out: Activity
# [19] = test system: NCI-H460; experiment: Growth inhibition of human NCI-H460 cells assessed as cell growth at 1 uM after 48 hrs by SRB assay relative to control; type: functional; settings: NCI-H460, 48 h, read-out: Activity
# [20] = test system: HOP-62; experiment: Cytotoxicity against human HOP62 cells assessed as growth inhibition after 48 hrs by SRB assay; type: functional; settings: HOP-62, 48 h
# [21] = test system: COLO 205; experiment: Antiproliferative activity against human COLO205 cells assessed as reduction in cell viability by MTT assay; type: functional, cell-based
# [22] = test system: MDA-MB-231; experiment: Cytotoxicity against human MDA-MB-231/ATCC cells assessed as growth inhibition after 48 hrs by SRB assay; type: functional; settings: MDA-MB-231, 48 h
# [23] = test system: CCRF-CEM; experiment: Growth inhibition of human CCRF-CEM cells assessed as cell growth at 0.01 uM after 48 hrs by SRB assay relative to control; type: functional; settings: read-out: Activity
# [24] = test system: SK-MEL-2; experiment: Growth inhibition of human SK-MEL-2 cells assessed as cell growth at 0.01 uM after 48 hrs by SRB assay relative to control; type: functional; settings: SK-MEL-2, 48 h, read-out: Activity
# [25] = test system: K562; experiment: Cytotoxicity against human K562 cells assessed as growth inhibition after 48 hrs by SRB assay; type: functional; settings: K562, 48 h
# [26] = test system: SK-MEL-28; experiment: Growth inhibition of human SK-MEL-28 cells assessed as cell growth at 0.1 uM after 48 hrs by SRB assay relative to control; type: functional; settings: SK-MEL-28, 48 h, read-out: Activity
# [27] = test system: K562; experiment: Growth inhibition of human K562 cells assessed as cell growth at 10 uM after 48 hrs by SRB assay relative to control; type: functional; settings: K562, 48 h, read-out: Activity
# [28] = test system: ACHN; experiment: Growth inhibition of human ACHN cells assessed as cell growth at 10 uM after 48 hrs by SRB assay relative to control; type: functional; settings: read-out: Activity
# [29] = test system: M14; experiment: Cytotoxicity against human M14 cells assessed as growth inhibition after 48 hrs by SRB assay; type: functional; settings: M14, 48 h
# [30] = read-out: LC50 (the source's name)
# [31] = read-out: pLC50 (the source's name) (converted)
smiles,measurement,setting,value
COc1ccc2c(c1)CCc1n[nH]c(-c3cc(OC)c(OC)c(OC)c3)c1-2,growth at 100 µM,[1],-18%
same,growth at 0.1 µM,[2],48%
same,growth at 1 µM,[3],7%
same,growth at 1 µM,[4],27%
same,growth at 0.1 µM,[5],33%
same,growth at 0.01 µM,[6],16%
same,growth at 0.01 µM,[7],15%
same,growth at 1 µM,[8],6%
same,GI50,[9]; read-out: GI50,< 0.01 µM
same,CC50,[9]; [30],> 100 µM
same,TGI,[9]; read-out: TGI,< 0.01 µM
same,GI50,[9]; read-out: pGI50 (converted),< 0.01 µM
same,CC50,[9]; [31],> 100 µM
same,TGI,[9]; read-out: pTGI,< 0.01 µM
same,CC50,[10]; [30],> 100 µM
same,TGI,[10]; read-out: TGI,> 100 µM
same,CC50,[10]; [31],> 100 µM
same,TGI,[10]; read-out: pTGI,> 100 µM
same,growth at 1 µM,[11],14%
same,GI50,[12]; read-out: GI50,< 0.01 µM
same,CC50,[12]; [30],55.9 µM
same,TGI,[12]; read-out: TGI,< 0.01 µM
same,GI50,[12]; read-out: pGI50 (converted),< 0.01 µM
same,CC50,[12]; [31],56.2 µM
same,TGI,[12]; read-out: pTGI,< 0.01 µM
same,growth at 1 µM,[13],39%
same,GI50,[14]; read-out: GI50,< 0.01 µM
same,CC50,[14]; [30],46.9 µM
same,TGI,[14]; read-out: TGI,< 0.01 µM
same,GI50,[14]; read-out: pGI50 (converted),< 0.01 µM
same,CC50,[14]; [31],46.8 µM
same,TGI,[14]; read-out: pTGI,< 0.01 µM
same,growth at 0.1 µM,[15],17%
same,growth at 0.01 µM,[16],46%
same,growth at 0.01 µM,[17],30%
same,growth at 1 µM,[18],-16%
same,growth at 1 µM,[19],2%
same,GI50,[20]; read-out: GI50,< 0.01 µM
same,CC50,[20]; [30],46.7 µM
same,TGI,[20]; read-out: TGI,10.8 µM
same,GI50,[20]; read-out: pGI50 (converted),< 0.01 µM
same,CC50,[20]; [31],46.8 µM
same,TGI,[20]; read-out: pTGI (converted),10.7 µM
same,IC50,[21],0.007 µM
same,GI50,[22]; read-out: GI50,< 0.01 µM
same,LC50 (concentration killing 50% of cells),[22]; read-out: LC50,> 100 µM
same,TGI,[22]; read-out: TGI,44.8 µM
same,GI50,[22]; read-out: pGI50 (converted),< 0.01 µM
same,LC50 (concentration killing 50% of cells),[22]; read-out: pLC50 (converted),> 100 µM
same,TGI,[22]; read-out: pTGI (converted),44.7 µM
same,growth at 0.01 µM,[23],38%
same,growth at 0.01 µM,[24],39%
same,GI50,[25]; read-out: GI50,< 0.01 µM
same,CC50,[25]; [30],> 100 µM
same,TGI,[25]; read-out: TGI,> 100 µM
same,GI50,[25]; read-out: pGI50 (converted),< 0.01 µM
same,CC50,[25]; [31],> 100 µM
same,TGI,[25]; read-out: pTGI,> 100 µM
same,growth at 0.1 µM,[26],60%
same,growth at 10 µM,[27],17%
same,growth at 10 µM,[28],15%
same,GI50,[29]; read-out: GI50,< 0.01 µM
same,LC50,[29]; read-out: LC50,58.7 µM
same,TGI,[29]; read-out: TGI,10.9 µM
same,GI50,[29]; read-out: pGI50 (converted),< 0.01 µM
same,LC50,[29]; read-out: pLC50 (converted),58.9 µM
same,TGI,[29]; read-out: pTGI (converted),11 µM
